Broadly, the IC50 is the midpoint of a concentration-inhibition curve. A low value points to inhibition by little substance.

This test deals with muscle cells. Nature of the test: Cell proliferation ELISA, BrdU incorporation into DNA (inhibition of DNA synthesis). It is filed as cell-based. The note with it: stents loaded with dipyramidole. From the text:
Incorporation of BrdU instead of thymidine into the DNA, measurement with anti-BrdU-POD antibody (Cell proliferation ELISA, BrdU; obtained from Roche Diagnostics, Mannheim, Germany)
The following results have been obtained using this test with the stents loaded with dipyramidole according to the present invention: […]
In general terms: ELISA stands for enzyme-linked immunosorbent assay.

Regarding `OCCN(CCO)c1nc(N2CCCCC2)c2nc(N(CCO)CCO)nc(N3CCCCC3)c2n1` [dipyridamole, 2,6-bis(diethanolamino)-4,8-dipiperidino-pyrimido[5,4-d]pyrimidine], the half-inhibitory concentration (IC50) is, setting by setting: (muscle cells stimulated with PDGF-BB) 100 to 300 nM; (muscle cells without stimulation) 1000 to 3000 nM; (with freshly prepared medium) 4000 to 10000 nM.

The record behind these values is patent publication US20090326633A1, “CONTROLLED RELEASE ENDOPROSTHETIC DEVICE” (BOEHRINGER INGELHEIM PHARMA GMBH & CO. KG, priority 2001, published 2009).
